Assay: xn = mol fraction of the nth substance listed

CC(=O)O.CC(=O)[O-].CC[NH+](CC)CCO + CCCC[n+]1ccn(C)c1.COP(=O)([O-])OC
101 kPa
Conditions | viscosity [mPa·s]
278.15 K, x1 = 0.3316 | 453
278.15 K, x1 = 0.5275 | 335
283.15 K, x1 = 0.7493 | 220
288.15 K, x1 = 0.5275 | 168.3
293.15 K, x1 = 0.0748 | 568
293.15 K, x1 = 0.7493 | 116.3
298.15 K, x1 = 0.5275 | 93.7
298.15 K, x1 = 0.6343 | 91.1
298.15 K, x1 = 0.8567 | 76.9
303.15 K, x1 = 0.0748 | 283.6
303.15 K, x1 = 1 | 59.6
308.15 K, x1 = 0.3316 | 74.6
308.15 K, x1 = 0.7493 | 53.4
313.15 K, x1 = 0.5275 | 44.19
313.15 K, x1 = 0.6343 | 42.6
318.15 K, x1 = 0.8567 | 27.56
323.15 K, x1 = 0.5275 | 30.28
323.15 K, x1 = 0.6343 | 29.17
323.15 K, x1 = 0.8567 | 22.27
328.15 K, x1 = 0.0748 | 73.3
328.15 K, x1 = 0.4263 | 27.4
328.15 K, x1 = 0.7493 | 23.34
333.15 K, x1 = 0.6343 | 18.02
333.15 K, x1 = 0.7493 | 17.41
338.15 K, x1 = 0.0748 | 47.83
343.15 K, x1 = 0.7493 | 13.68
348.15 K, x1 = 0.6343 | 12.02
348.15 K, x1 = 1 | 8.93
358.15 K, x1 = 0.5275 | 9.3
358.15 K, x1 = 0.8567 | 6.94
358.15 K, x1 = 1 | 6.65
363.15 K, x1 = 1 | 5.8
368.15 K, x1 = 0.5275 | 7.03
368.15 K, x1 = 0.6343 | 6.64

CCCC(=O)[O-].CC[NH+](CC)CCO + CCCC[n+]1ccn(C)c1.COP(=O)([O-])OC
101 kPa
Conditions | viscosity [mPa·s]
278.15 K, x1 = 0.8006 | 196.8
278.15 K, x1 = 1 | 189
283.15 K, x1 = 0.6001 | 182.3
283.15 K, x1 = 1 | 133.9
288.15 K, x1 = 0.1023 | 864
288.15 K, x1 = 0.6613 | 121.1
293.15 K, x1 = 0.3985 | 163.9
293.15 K, x1 = 0.498 | 123.1
293.15 K, x1 = 0.6001 | 99.4
293.15 K, x1 = 0.8788 | 74.2
298.15 K, x1 = 0.1989 | 264.3
303.15 K, x1 = 0.1989 | 194.8
303.15 K, x1 = 0.6001 | 58.8
308.15 K, x1 = 0.3985 | 73.2
313.15 K, x1 = 0.3026 | 78
313.15 K, x1 = 0.498 | 45.11
313.15 K, x1 = 0.6613 | 33.88
318.15 K, x1 = 0.1023 | 124.4
318.15 K, x1 = 0.6001 | 30.12
318.15 K, x1 = 0.8006 | 23.35
323.15 K, x1 = 0.1989 | 69.7
323.15 K, x1 = 0.6613 | 22.66
328.15 K, x1 = 0.6001 | 20.62
338.15 K, x1 = 0.6613 | 13.49
338.15 K, x1 = 0.8006 | 11.39
338.15 K, x1 = 1 | 9.73
343.15 K, x1 = 0.1989 | 31.59
343.15 K, x1 = 0.3985 | 18.82
343.15 K, x1 = 0.6001 | 12.63
348.15 K, x1 = 0.498 | 13.05
353.15 K, x1 = 0.3026 | 17.55
353.15 K, x1 = 0.8006 | 7.3
353.15 K, x1 = 0.8788 | 6.78
353.15 K, x1 = 1 | 6.11
358.15 K, x1 = 0.3985 | 12.24
358.15 K, x1 = 0.6613 | 7.62
358.15 K, x1 = 1 | 5.31
368.15 K, x1 = 0.3026 | 11.71
368.15 K, x1 = 1 | 4.09

OCCN(CCO)CCO + CCCC[n+]1ccn(C)c1.F[B-](F)(F)F
Conditions | viscosity [mPa·s]
303.15 K, 101 kPa, x1 = 1 | 400

c1ccsc1 + CCCC[n+]1ccn(C)c1.N#C[S-]
100 kPa, x1 = 1
Conditions | viscosity [mPa·s]
298.15 K | 0.655
308.15 K | 0.585
318.15 K | 0.525
328.15 K | 0.47

CN(C)c1ccccc1 + CCCC[n+]1ccn(C)c1.O=S(=O)([N-]S(=O)(=O)C(F)(F)F)C(F)(F)F
viscosity [mPa·s], 100 kPa
Conditions | 288.15 K | 293.15 K | 298.15 K | 303.15 K | 308.15 K | 313.15 K | 318.15 K | 323.15 K | 328.15 K | 333.15 K
x1 = 0.1 | 65.1 | 51.3 | 41.3 | 34 | 28.3 | 23.6 | 20.23 | 17.37 | 15.09 | 13.19
x1 = 0.2 | 52.2 | 41.4 | 33.6 | 28 | 23.4 | 19.61 | 16.9 | 14.6 | 12.74 | 11.19
x1 = 0.2993 | 40.5 | 32.4 | 26.6 | 22.26 | 18.75 | 15.88 | 13.77 | 11.97 | 10.49 | 9.29
x1 = 0.4001 | 30.4 | 24.6 | 20.44 | 17.16 | 14.66 | 12.5 | 10.93 | 9.56 | 8.44 | 7.52
x1 = 0.5005 | 21.72 | 17.79 | 15.06 | 12.73 | 10.96 | 9.44 | 8.34 | 7.36 | 6.55 | 5.86
x1 = 0.5993 | 15.08 | 12.54 | 10.77 | 9.21 | 8.02 | 7 | 6.21 | 5.53 | 4.98 | 4.49
x1 = 0.7 | 9.89 | 8.36 | 7.29 | 6.34 | 5.58 | 4.93 | 4.42 | 3.98 | 3.62 | 3.29
x1 = 0.7996 | 6.07 | 5.25 | 4.64 | 4.12 | 3.68 | 3.3 | 3 | 2.74 | 2.5 | 2.3
x1 = 0.8997 | 3.33 | 2.96 | 2.67 | 2.42 | 2.205 | 2.028 | 1.858 | 1.716 | 1.591 | 1.485
x1 = 1 | 1.536 | 1.415 | 1.302 | 1.206 | 1.123 | 1.056 | 0.981 | 0.92 | 0.865 | 0.819

Source: the CheMixHub ionic liquid set
